Measured values taken from article PMC4541407 (2015).

Assays:
[1] = system: c-KIT1 (dual labelled) (DNA, G4) GGGAGGGCGCTGGGAGGGAGGG; assay: FRET melting
[2] = system: c-MYC (dual labelled) (DNA, G4) TGAGGGTGGGTAGGGTGGGTAA; assay: FRET melting
[3] = system: ds DNA (dual labelled) (DNA, duplex) CCAGTTCGTAGTAACCC/GGGTTACTACGAACTGG; assay: FRET melting; details: 50 mM K+, 50 mM potassium cacodylate pH 7.4
[4] = system: c-KIT2 (dual labelled) (DNA, G4) GGGCGGGCGCGAGGGAGGGG; assay: FRET melting
[5] = system: c-KIT2 (DNA, G4) GGGCGGGCGCGAGGGAGGGG; assay: fluorescence titration; details: 100 mM K+; 100 mM Tris-HCl pH 7.4, 25 °C; 1.0 µM ligand, DNA 0-6 equiv
[6] = system: c-MYC (NMR oligonucleotide) (DNA, G4) TGAGGGTGGGTAGGGTGGGTAA; assay: 1H NMR imino titration
[7] = system: c-KIT1 (DNA, G4) GGGAGGGCGCTGGGAGGGAGGG; assay: fluorescence titration; details: 100 mM K+; 100 mM Tris-HCl pH 7.4, 25 °C; 1.0 µM ligand, DNA 0-6 equiv
[8] = system: c-MYC (DNA, G4) TGAGGGTGGGTAGGGTGGGTAA; assay: fluorescence titration; details: 100 mM Tris-HCl pH 7.4, 25 °C; for KD: 100 mM K+, 1.0 µM ligand, DNA 0-6 equiv
[9] = system: ds DNA (DNA, duplex) CCAGTTCGTAGTAACCC/GGGTTACTACGAACTGG; assay: fluorescence titration; details: 100 mM K+; 100 mM Tris-HCl pH 7.4, 25 °C; 1.0 µM ligand, DNA 0-6 equiv
[10] = 50 mM K+, 50 mM potassium cacodylate pH 7.4, 1.0 µM ligand

binding [1, 10] | binding [2, 10] | binding ([3]; 1.0 µM ligand) | binding [4, 10] | ΔTm ([1]; 50 mM K+, 50 mM potassium cacodylate pH 7.4, 750 nM ligand, maximum measurable shift) [K] | binding ([1]; no added K+, MQ water pH 7.4, saturation at 1 µM ligand) | KD [5] [nM] | binding ([6]; 100 mM K+, 25 mM Tris-HCl pH 7.4, 298 K, 100 µM DNA, binds minor conformation) | binding ([6]; no added K+, 25 mM Tris-HCl pH 7.4, 298 K, 100 µM DNA, binds minor conformation) | KD [7] [nM] | ΔTm ([2]; 50 mM K+, 50 mM potassium cacodylate pH 7.4, 100 nM ligand, maximum measurable shift) [K] | binding ([2]; no added K+, MQ water pH 7.4, saturation at 250 nM ligand) | KD [8] [nM] | binding ([8]; no added K+, 5.5-fold enhancement, 25 nm blue shift, Kd n.d.) | binding ([3]; up to 1.0 µM ligand) | Kd [9] [nM] | ΔTm ([4]; 50 mM K+, 50 mM potassium cacodylate pH 7.4, 500 nM ligand, maximum measurable shift) [K] | binding ([4]; no added K+, MQ water pH 7.4, saturation at 750 nM ligand) | binding ([6]; 100 mM K+, 25 mM Tris-HCl pH 7.4, stabilizes minor conformation(s)) | SMILES
no | no | no | no |  |  |  |  |  |  |  |  |  |  |  |  |  |  |  | C#Cc1ccc2c(c1)c1cc(C#C)ccc1n2CCCN(C)C
 |  |  |  | 39.4 ± 2.5 | yes | 1370 ± 60 | yes | yes | 1380 ± 70 | 22.7 ± 1.4 | yes | 300 ± 15 | yes | no | > 10000 | 23.2 ± 1.6 | yes |  | CN(C)CCCNC(=O)c1ccc(-n2cc(-c3ccc4c(c3)c3cc(-c5cn(-c6ccc(C(=O)NCCCN(C)C)cc6)nn5)ccc3n4CCCN(C)C)nn2)cc1
 | yes |  |  |  |  |  |  |  |  |  |  | > 20000 |  |  |  |  |  | yes | CN(C)CCCn1c2ccc(-c3cn(-c4ccc(N)cc4)nn3)cc2c2cc(-c3cn(-c4ccc(N)cc4)nn3)ccc21
